Experiments:
[1] = organism: Rattus norvegicus; assay: animal or person
Description: In vivo inhibition of apomorphine induced hyperactivity in rats.

[2] = organism: Rattus norvegicus; assay: animal or person; remark: listed apart in the source
Description: In vivo inhibition of apomorphine induced stereotypy in rats.

[3] = in vivo; settings: rat, ip
Description: Compound was tested for its acute toxicity in rat after ip administration

[4] = test system: Rattus norvegicus; assay: Compound was tested for anti-dopamine activity in vivo by its ability to inhibit apomorphine induced hyperactivity in rat; type: functional
[5] = test system: Rattus norvegicus; assay: Compound was tested for anti-dopamine activity in vivo by its ability to inhibit apomorphine induced stereotypy in rat; type: functional

Compound | ED50 [1] | ED50 [2] | LD50 [3] | ED50 [4] | ED50 [5]
CCN1CCC[C@H]1CNC(=O)c1c(O)c(Br)cc(Cl)c1OC | 0.95 µmol/kg | 1.35 µmol/kg |  |  | 
CCN1CCC[C@H]1CNC(=O)c1c(O)c(Cl)cc(Cl)c1OC [RACLOPRIDE] | 0.13 µmol/kg | 1.7 µmol/kg | 660 µmol/kg |  | 
CCCc1cc(Cl)c(OC)c(C(=O)NC[C@@H]2CCCN2CC)c1O | 0.1 µmol/kg | 0.35 µmol/kg |  |  | 
CCN1CCC[C@H]1CNC(=O)c1c(O)c(Br)cc(F)c1OC | 0.16 µmol/kg | 0.42 µmol/kg |  |  | 
CCN1CCC[C@H]1CNC(=O)c1c(O)c(C)cc(Cl)c1OC | 0.74 µmol/kg | 1.32 µmol/kg |  |  | 
CCc1cc(CC)c(OC)c(C(=O)NC[C@@H]2CCCN2CC)c1O | 0.076 µmol/kg | 0.46 µmol/kg | 530 µmol/kg |  | 
CCc1cc(Br)c(OC)c(C(=O)NC[C@@H]2CCCN2CC)c1O | 0.085 µmol/kg | 0.47 µmol/kg | 320 µmol/kg |  | 
CCc1cc(Cl)c(OC)c(C(=O)NC[C@@H]2CCCN2CC)c1O [ETICLOPRIDE] | 0.032 µmol/kg | 0.19 µmol/kg | 330 µmol/kg |  | 
CCN1CCC[C@@H]1CNC(=O)c1c(O)c(Cl)cc(Cl)c1OC | 1.07 µmol/kg | 32 µmol/kg |  |  | 
CCN1CCC[C@H]1CNC(=O)c1cc(Br)cc(Br)c1O | 28 µmol/kg | > 40 µmol/kg |  |  | 
CCN1CCC[C@H]1CNC(=O)c1cc(Br)cc(Br)c1OC | 0.66 µmol/kg | 2.69 µmol/kg |  |  | 
O=C(CCCN1CCC(O)(c2ccc(Cl)cc2)CC1)c1ccc(F)cc1 [HALOPERIDOL] |  |  | 93 µmol/kg | 0.29 µmol/kg | 0.27 µmol/kg
CCc1cc(F)c(OC)c(C(=O)NC[C@@H]2CCCN2CC)c1O | 0.065 µmol/kg | 0.31 µmol/kg |  |  | 
CCc1cc(Br)c(O)c(C(=O)NC[C@@H]2CCCN2CC)c1OC | 0.87 µmol/kg | 1.45 µmol/kg |  |  | 
CCc1cc(Cl)c(O)c(C(=O)NC[C@@H]2CCCN2CC)c1OC | 2.5 µmol/kg | 1.51 µmol/kg |  |  | 
CCc1ccc(OC)c(C(=O)NC[C@@H]2CCCN2CC)c1O | 0.12 µmol/kg | 0.28 µmol/kg | 370 µmol/kg |  | 
CCN1CCC[C@H]1CNC(=O)c1c(O)c(C)cc(C)c1OC | 1.86 µmol/kg | 3.1 µmol/kg |  |  | 
CCN1CCC[C@H]1CNC(=O)c1c(O)c(Br)cc(Br)c1OC | 0.65 µmol/kg | 1.48 µmol/kg | 450 µmol/kg |  | 
